In PubChem BioAssay (NCI):
“And” between values parts separate entries of the source, which are not always exact repeats. Equal entries are not always repeated.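 Tested at 5 concentrations; 48 h exposure; 96-well plates; endpoints linearly interpolated, else capped at highest concentration. The concentration for 50% growth inhibition is given as GI50. Definition used: TGI = concentration required for complete inhibition of growth.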

Tests used:
Assay in all cases: DTP human tumour cell line panel, 48 h
[1] = tested on: COLO 205 colon
[2] = tested on: M14 melanoma
[3] = tested on: MDA-MB-231 breast
[4] = tested on: NCI-H522 lung
[5] = tested on: RPMI-8226 leukemia
[6] = tested on: SK-MEL-2 melanoma
[7] = tested on: SK-MEL-28 melanoma
[8] = tested on: SNB-75 CNS
[9] = tested on: T-47D breast
[10] = tested on: U251 CNS

Row | SMILES | TGI [1] [µM] | TGI [2] [µM] | TGI [3] [µM] | TGI [4] [µM] | TGI [5] | TGI [6] [µM] | TGI [7] | TGI [8] | TGI [9] [µM] | TGI [10] [µM] | GI50 [2] [µM] | GI50 [3] [µM] | GI50 [5] [µM] | GI50 [6] [µM] | GI50 [8] [µM] | GI50 [9] [µM] | GI50 [10] [µM] | GI50 [1] [µM] | GI50 [4] [µM] | GI50 [7] [µM]
1 | O=P(O)(O)OP(=O)(O)O | > 100 | > 100 | > 100 | > 100 | > 100 µM | > 100 | > 100 µM | > 100 µM | > 100 | > 100 | – | – | – | – | – | – | – | – | – | –
2 | NC(CCc1ccccc1)(C(=O)O)c1ccccc1 (stereo not drawn) | – | > 100 | > 100 | > 100 | – | > 100 | > 100 µM | > 100 µM | > 100 | > 100 | – | – | – | – | – | – | – | – | – | –
3 | COC(=O)c1c(O)ccc2c1c1c(n2Cc2ccccn2)C(=O)c2ccccc2C1 | 28.5 | > 100 | > 100 | – | 59.9 µM | > 100 | > 100 µM | > 100 µM | – | > 100 | – | – | – | – | – | – | – | – | – | –
4 | CC(Br)C(=O)c1ccc2cc(Br)c3ccccc3c2c1 (stereo not drawn) | – | 31 | 30.2 | 16.7 | 21.2 µM | 26.5 | 34 µM | 29 µM | 30.5 | 26.5 | – | – | – | – | – | – | – | – | – | –
5 | CCOc1cc(NC(C)=O)ccc1C(=O)N/N=C/c1ccco1 | > 100 | – | > 100 | > 100 | > 100 µM | > 100 | > 100 µM | > 100 µM | > 100 | – | – | – | – | – | – | – | – | – | – | –
6 | CCCCCCOC(=O)C(N)Cc1ccc(OC)cc1 (stereo not drawn) | > 100 | > 100 | > 100 | > 100 | – | > 100 | > 100 µM | > 100 µM | > 100 | > 100 | – | – | – | – | – | – | – | – | – | –
7 | Cc1cc(N2CCOCC2)nc(N(CCCNc2ccnc3cc(Cl)ccc23)Cc2ccc3c(c2)OCO3)n1 | – | 2.73 | 3.32 | – | 4 µM | 2.66 | – | 2.93 µM | 3.93 | 2.12 | 1.4 | 1.68 | 1.45 | 1.26 | 1.5 | 1.41 | 0.936 | – | – | –
8 | CN(C)C/C=C(/c1ccc(Br)cc1)c1cccnc1 | 32.4 | 37.2 | > 100 | > 100 | > 100 µM | 37.6 | 34.1 µM | > 100 µM | > 100 | > 100 | – | – | – | – | – | – | – | – | – | –
9 | CCN(CC)/[N+]([O-])=N/OC | – | > 100 | – | > 100 | – | > 100 | > 100 µM | – | – | > 100 | – | – | – | – | – | – | – | – | – | –
10 | Cc1cc(O)c2c(c1O)C(=O)c1c(O)ccc(O)c1C2=O | > 100 | > 100 | > 100 | > 100 | > 100 µM | > 100 | – | > 100 µM | > 100 | > 100 | – | – | – | – | – | – | – | – | – | –
11 | CC(C)(C)c1ccc(O)c(Br)c1 | > 100 | > 100 | > 100 | > 100 | > 100 µM | > 100 | > 100 µM | > 100 µM | > 100 | > 100 | – | – | – | – | – | – | – | – | – | –
12 | CC(C)c1ccc2c(c1)[C@@]1(C)CC[C@H](C)C(C)(C)C1CC2 (stereo partly drawn) | 42.1 | 34.8 | 34 | 75.3 | 41.1 µM | 63.3 | 31.6 µM | 31.6 µM | 66.4 | – | – | – | – | – | – | – | – | – | – | –
13 | O=C(CSc1nc2ccc(Cl)cc2c(=O)n1-c1ccccc1)N=Nc1c(O)[nH]c2ccc(F)cc12 | 4.81 | 11 | 5.82 | 3.86 | 3.9 µM | 5.3 | 11.3 µM | 5.65 µM | 4.8 | 3.27 | – | – | – | – | – | – | – | – | – | –
14 | Clc1ccc(NCc2nnc(COc3ccc(OCc4nnc(CNc5ccc(Cl)cc5)o4)c(Cl)c3)o2)cc1 | 25.9 | > 100 | 63.3 | 46.5 | 36.9 µM | > 100 | > 100 µM | – | > 100 | > 100 | – | – | – | – | – | – | – | – | – | –
15 | C/C(=C\CNc1ncnc2nc(Cl)[nH]c12)CO | > 100 | > 100 | > 100 | > 100 | > 100 µM | – | > 100 µM | > 100 µM | > 100 | – | – | – | – | – | – | – | – | – | – | –
16 | CCOC(=O)C(C)OC(=O)c1ccc(C)cc1 (stereo not drawn) | > 100 | > 100 | – | > 100 | – | > 100 | > 100 µM | > 100 µM | – | > 100 | – | – | – | – | – | – | – | – | – | –
17 | NCCCCN | > 100 | > 100 | > 100 | > 100 | – | > 100 | > 100 µM | > 100 µM | > 100 | > 100 | – | – | – | – | – | – | – | – | – | –
18 | COc1cccc(/C=N/[N-]C(N)=O)c1[O-].[Cu+2].[OH3+].c1cnc2c(c1)ccc1cccnc12 | 32.5 | 28.8 | – | – | 91.4 µM | 32.1 | 29.7 µM | 24.4 µM | – | 17.7 | – | – | – | – | – | – | – | – | – | –
19 | COC(=N)C(C)C | > 100 | > 100 | – | > 100 | > 100 µM | – | > 100 µM | > 100 µM | – | > 100 | – | – | – | – | – | – | – | – | – | –
20 | C[C@H](Nc1ccc(C#N)n(C)c1=O)c1cc2cc(Cl)ccc2[nH]c1=O | 40.2 | > 100 | 98.4 | > 100 | 49.3 µM | 94 | > 100 µM | 55.4 µM | 94.4 | > 100 | 23.7 | 23.2 | 14.2 | 26.7 | 4.67 | 17.3 | 30 | 19 | 29.6 | 28.5
21 | CCOC(=O)C(=CNC(Cc1c[nH]c2ccccc12)C(=O)OC)C(=O)OCC (stereo not drawn) | > 100 | > 100 | – | > 100 | > 100 µM | > 100 | > 100 µM | > 100 µM | – | > 100 | – | – | – | – | – | – | – | – | – | –
22 | O=CC(O)C(O)C(O)COc1cc(CO)cc2c1C(=O)c1ccccc1C2=O (stereo not drawn) | > 100 | > 100 | – | > 100 | > 100 µM | > 100 | > 100 µM | > 100 µM | – | > 100 | – | – | – | – | – | – | – | – | – | –
23 | C=C1CCCC(C)(C)[C@@H]1CC/C(C)=C/Cn1c2cccc(=O)c-2nc2ccccc21 | – | – | – | > 100 | 9.68 µM and 17.8 µM | – | 3.46 µM and 17.6 µM | 4.54 µM and 5.04 µM | – | – | – | – | 3.06 | 6.62 | 2.09 | – | 10.7 | 23.8 | 6.35 | 1.82
24 | CC(C)(C)OC(=O)N1C(C2=COc3ccccc3O2)=COc2cccnc21 | 3.64 | 3.65 | 4.01 | 3.49 | 4.43 µM | 3.96 | 3.47 µM | 29.2 µM | 3.45 | 3.13 | – | – | – | – | – | – | – | – | – | –
